Experimental data reported in ChEMBL document CHEMBL2407073, “RCAI-61 and related 6'-modified analogs of KRN7000: their synthesis and bioactivity for mouse lymphocytes to produce interferon-γ in vivo” (Bioorg Med Chem, 2013).
Activity calls are given as the source filed them.

Legend:
Assay type in all cases: functional, organism-based
Mus musculus [1] = test: Immunostimulatory activity in C57BL/6J mouse assessed as increase in production of IL-4 in serum at 2 ug, iv measured at 3 hrs by cytometric bead array method
Mus musculus [2] = test: Immunostimulatory activity in C57BL/6J mouse assessed as increase in production of IL-12p70 in serum at 2 ug, iv measured at 3 to 6 hrs by cytometric bead array method
Mus musculus [3] = test: Immunostimulatory activity in C57BL/6J mouse assessed as increase in production of IFNgamma in serum at 2 ug, iv by ELISA
Mus musculus [4] = test: Immunostimulatory activity in C57BL/6J mouse assessed as increase in production of IL-4 in serum at 0.02 to 2 ug, iv measured at 3 hrs by cytometric bead array method
Mus musculus [5] = test: Immunostimulatory activity in C57BL/6J mouse assessed as increase in production of IFNgamma in serum at 0.02 ug, iv by ELISA
Mus musculus [6] = test: Immunostimulatory activity in iv dosed C57BL/6J mouse assessed as increase in production of IL-4 in serum measured at 3 hrs by cytometric bead array method

Measured: Activity

CCCCCCCCCCCCCCCCCCCCCCCCCC(=O)N[C@@H](CO[C@H]1O[C@H](COCOC)[C@H](O)[C@H](O)[C@H]1O)[C@H](O)[C@H](O)CCCCCCCCCCCCCC
active: Mus musculus [1] | Mus musculus [2] | Mus musculus [3]

CCCCCCCCCCCCCCCCCCCCCCCCCC(=O)N[C@@H](CO[C@H]1O[C@H](COCC)[C@H](O)[C@H](O)[C@H]1O)[C@H](O)[C@H](O)CCCCCCCCCCCCCC
active: Mus musculus [1] | Mus musculus [2] | Mus musculus [3]

CCCCCCCCCCCCCCCCCCCCCCCCCC(=O)N[C@@H](CO[C@H]1O[C@H](COCCO)[C@H](O)[C@H](O)[C@H]1O)[C@H](O)[C@H](O)CCCCCCCCCCCCCC
active: Mus musculus [1] | Mus musculus [2] | Mus musculus [3]

CCCCCCCCCCCCCCCCCCCCCCCCCC(=O)N[C@@H](CO[C@H]1OC[C@H](O)[C@H](O)[C@H]1O)[C@H](O)[C@H](O)CCCCCCCCCCCCCC
active: Mus musculus [1] | Mus musculus [2] | Mus musculus [3]

CCCCCCCCCCCCCCCCCCCCCCCCCC(=O)N[C@@H](CO[C@H]1O[C@H](CO)[C@H](O)[C@H](O)[C@H]1O)[C@H](O)[C@H](O)CCCCCCCCCCCCCC
active: Mus musculus [4] | Mus musculus [1] | Mus musculus [2] | Mus musculus [3]

CCCCCCCCCCCCCCCCCCCCCCCCCC(=O)N[C@@H](CO[C@H]1O[C@H](COCOCCOC)[C@H](O)[C@H](O)[C@H]1O)[C@H](O)[C@H](O)CCCCCCCCCCCCCC
active: Mus musculus [1] | Mus musculus [2] | Mus musculus [3]

CCCCCCCCCCCCCCCCCCCCCCCCCC(=O)N[C@@H](CO[C@H]1O[C@H](C)[C@H](O)[C@H](O)[C@H]1O)[C@H](O)[C@H](O)CCCCCCCCCCCCCC
active: Mus musculus [1] | Mus musculus [2] | Mus musculus [3]

CCCCCCCCCCCCCCCCCCCCCCCCCC(=O)N[C@@H](CO[C@H]1O[C@H](COCCC)[C@H](O)[C@H](O)[C@H]1O)[C@H](O)[C@H](O)CCCCCCCCCCCCCC
active: Mus musculus [1] | Mus musculus [2] | Mus musculus [3]

CCCCCCCCCCCCCCCCCCCCCCCCCC(=O)N[C@@H](CO[C@H]1O[C@H](CC)[C@H](O)[C@H](O)[C@H]1O)[C@H](O)[C@H](O)CCCCCCCCCCCCCC
active: Mus musculus [1] | Mus musculus [2] | Mus musculus [3]

CCCCCCCCCCCCCCCCCCCCCCCCCC(=O)N[C@@H](CO[C@H]1O[C@H](COC)[C@H](O)[C@H](O)[C@H]1O)[C@H](O)[C@H](O)CCCCCCCCCCCCCC
active: Mus musculus [5] | Mus musculus [1] | Mus musculus [2] | Mus musculus [6] Dose-dependent effect | Mus musculus [3]

CCCCCCCCCCCCCCCCCCCCCCCCCC(=O)N[C@@H](CO[C@H]1O[C@H](CF)[C@H](O)[C@H](O)[C@H]1O)[C@H](O)[C@H](O)CCCCCCCCCCCCCC
active: Mus musculus [1] | Mus musculus [2] | Mus musculus [3]
